Experimental data published in US20200123127A1, “REMOVAL OF SENESCENCE-ASSOCIATED MACROPHAGES” (EVERON BIOSCIENCES, INC., priority 2016, published 2020).
Where two headings read alike, the source gives them in different places.

B1: IFN-γ: type II interferon, M1-inducing agent (protein, UniProt P01579 24-161, looked up)
Interferon gamma: QDPYVKEAENLKKYFNAGHSDVADNGTLFLGILKNWKEESDRKIMQSQIVSFYFKLFKNFKDDQSIQKSVETIKEDMNVKFFNSNKKKRDDFEKLTNYSVTDLNVQRKAIHELIQVMAELSPAAKTGKRKRSQMLFRG

Tests used:
[1] = tested on: p16(Ink4a) in mLF and mVAT fibroblasts; assay: Modulation of p16(Ink4a) in mouse lung and visceral adipose tissue-derived fibroblasts; type: cell-based; conditions: for Modulation of p16(Ink4a): mLF and mVAT Senescent: 20Gy irradiation for senescence induction; for Modulation of p16(Ink4a): mLF and mVAT Proliferating: without irradiation
Source text: We next sought to determine whether immunomodulatory agents, and other small molecules, were capable of selectively modulating p16(Ink4a) expression in SAMs by comparing their effects on p16 expression in SAMs to that of mouse lung fibroblasts (mLF) and mouse visceral adipose tissue-derived fibroblasts (mVAT). […] Immunomodulatory agents cause little to no change in p16 expression in fibroblasts. For example, mouse fibroblasts are reported to respond to LPS and IL-4 (expressing TLR4 and IL-4R, respectively), yet these agents are unable to modulate p16 in fibroblasts.

[2] = tested on: human neonatal dermal fibroblasts (NDF); assay: Resazurin viability assay, senescent vs proliferating/quiescent human neonatal dermal fibroblasts; type: cell-based; conditions: for IC50: Homo sapiens, Fibroblast, 72 h, 72 hour exposure; for Selectivity (Prolif/Sen): NDF
Procedure: FIG. 2. Compound A1.1 selectively kills senescent human neonatal dermal fibroblasts (NDF) cells in a dose- and time-dependent manner. (FIG. 2A) Normal proliferating and quiescent NDF cells, and the cells made senescent via exposure to genotoxic agents (doxorubicin, bleomycin and gamma-irradiation) were incubated with increasing concentrations of A1.1. At 72 hours post-treatment cell viability was measured via resazurin viability assay. (FIG. 2B) Compound A1.1 selectively kills senescent NDF cells in time-dependent manner discriminating between acute genotoxic stress and senescence. Acutely damaged NDF cells were irradiated with 4 Gy gamma-irradiation 24 hours before A1.1 treatment. Senescent NDF cells were treated with bleomycin or irradiated with 15 Gy and incubated for 14 days to induce senescence before treatment with A1.1. Proliferating acutely damaged and senescent NDF cell were treated with 1.875-30 μM A1.1 and viable cells were measured at 72 hours after treatment. Average and standard deviation are shown.
Normal proliferating and quiescent NDF cells, and the cells made senescent via exposure to genotoxic agents (doxorubicin, bleomycin and gamma-irradiation) were incubated with increasing concentrations of A1.1. At 72 hours post-treatment cell viability was measured via resazurin viability assay.
A1.1 selectively kills senescent human neonatal dermal fibroblasts (NDF) cells in time-dependent manner discriminating between acute genotoxic stress and senescence ([…]). Acutely damaged NDF cells were irradiated with 4 Gy gamma-irradiation 24 hours before A1.1 treatment. Senescent NDF cells were treated with bleomycin or irradiated with 15 Gy and incubated for 14 days to induce senescence before treatment with A1.1.
Cytotoxicity of A1.1 analogs against bleomycin-induced senescent human NDFs and rat dermal fibroblasts (RDFs). Activity of analogs was assessed from dose-response curves against irradiation- or bleomycin-induced senescent and proliferating cells to calculate IC50s (uM). The fold difference of proliferating versus senescent cell IC50s was used to assess the level of specific anti-senescent activity of the compounds.
For generation senescent human neonatal dermal fibroblasts (NDFs) and adult rat dermal fibroblasts (RDFs), cells are treated at ˜10 ug/ml bleomycin for 3 days (for bleomycin-induced senescence) or irradiated once at 20 Gy using a gamma irradiator (Cs source), followed by at least 7 day recovery in fresh medium for induction of senescence. Senescent and non-senescent (proliferating) cells for each cell line are plated into 384-w plate, followed by 72 hour exposure to a dose titration of compounds. Viability measurements are estimated using the resazurin viability assay. Using GraphPad Prism 5, the IC50 values are calculated from the non-linear regression of log-transformed compound concentrations versus dose-response normalized to background and non-treated controls.

[3] = tested on: adipose-derived mesenchymal stromal cells (AdMSC) from p16Ink4a/Luc mice; assay: Luciferase and β-galactosidase activities in senescent and proliferating adipose-derived mesenchymal stromal cells; type: cell-based, mouse
Source text: FIG. 10. Elevated p16(Ink4a) and β-galactosidase is regulated by immunomodulatory agents in macrophages, but not in mesenchymal SCs. Primary cultures of adipose-derived mesenchymal stromal cells (AdMSC) isolated from p16^Ink4a/Luc mice were irradiated (20 Gy) and cultured for 10 days for senescence induction. Mock irradiated cells were used as a proliferating cell control. Response of senescent and proliferating AdMSCs to immunomodulatory agents were compared to that of peritoneal lavage cells elicited by our alginate bead model. A-D) Dose-response curves of LPS (top panels: […]) and Poly(I:C) (bottom panels: C&D) on p16(Ink4a) promoter-dependent luciferase activity (left panels: A&C) and beta-galactosidase activity measured via 4-MUG hydrolysis (right panels: B&D) after 72 hr treatment. No effect on viability was observed via CyQuant Direct assay (>80% viability). Results are shown as the mean±standard deviation for at least 3 experiments.
Primary cultures of adipose-derived mesenchymal stromal cells (mAdMSC) were established from the stromal vascular fraction of inguinal adipose tissues of young p16^LUC mice, as described. Isolated adherent cultures were maintained in DMEM/F12 medium supplemented with 15% FBS and 1× anti-biotic/anti-mycotic solution (Thermo Fisher Scientific) in a tri-gas tissue culture incubator at 37° C., 5% CO2 and 3% O2. Medium was change twice per week, and cell passaging performed when cells reached ˜80-90% confluency. For induction of senescence, passage 1 cells were irradiated in suspension at 20 Gy, and replated cultures were maintained at 21% 02.
We investigated whether the mechanisms regulating the expression of these traits in macrophages were similar to those found in SCs. Using cells isolated from p16^Ink4a/Luc mice, the dose-dependent response of luciferase and β-galactosidase activities to immunomodulatory stimuli in macrophages was compared to that of proliferating and irradiation-induced senescent adipose-derived mesenchymal stromal cells. […] LPS stimulation of alginate bead model-elicited macrophages reduced luciferase activity, with maximal inhibition (˜85%) observed at concentrations ≥1 ng/mL (FIG. 10A). In addition, β-galactosidase activity was reduced by 40% at 10 ng/mL (FIG. 10B).
In contrast, luciferase and β-galactosidase activities were unaltered in senescent and proliferating mesenchyme in response to LPS (up to 1 μg/mL) (FIGS. 10A&B).

[4] = proliferating NDF, resazurin, read-out: IC50 NDFprolif
[5] = senescent NDF, bleomycin-induced, resazurin, read-out: IC50 NDFsen.bleo
[6] = light or radiation study, senescent NDF, irradiation-induced, resazurin, read-out: IC50 NDFsen.irr

| Molecule | Modulation of p16(Ink4a): mLF and mVAT Senescent [1] | Modulation of p16(Ink4a): mLF and mVAT Proliferating [1] | p16(Ink4a) response of senescent vs proliferating mesenchymal cells [3] | other results |
| --- | --- | --- | --- | --- |
| COc1ccc(C2CC(=NO)c3c(SCc4ccccc4)sc(C(=O)NCc4cccc(F)c4)c3C2)cc1 (centres unmarked) [Example A1.6, 3-(Benzylthio)-N-(3-fluorobenzyl)-4-(hydroxyimino)-6-(4-methoxyphenyl)-4,5,6,7-tetrahydrobenzo[c]thiophene-1-carboxamide] | no change | no change |  | IC50 [2, 4]: > 20 µM; IC50 [2, 5]: < 5 µM; IC50 [2, 6]: < 5 µM |
| Poly(I:C) | no change | no change |  |  |
| CCOC(=O)c1sc(SCc2ccccc2)c2c1CC(c1ccc(OC)cc1)C/C2=N\O (centres unmarked) [Example A1.1] |  |  |  | IC50 [2, 4]: > 20 µM; IC50 [2, 5]: < 5 µM; IC50 [2, 6]: < 10 µM; Selectivity (Prolif/Sen) ([2]; Bleomycin): 5.3; Selectivity (Prolif/Sen) ([2]; Irradiation): 2.9; effect on viability of proliferating or quiescent NDF cells ([2]; concentrations up to 10 μM, 72 hours, resazurin): no significant effect |
| IL-13: M2-polarizing cytokine | no change | no change | lacking a differential response |  |
| IFN-α |  |  | lacking a differential response |  |
| O=C(NCCCc1cn[nH]c1)c1ccc(-c2ccncc2)c(C#Cc2ccc(F)cc2)c1 [OT-82] | no change | no change |  |  |
| IL-4: M2-polarizing cytokine | no change | no change | lacking a differential response |  |
| B1 |  |  | lacking a differential response |  |
